Laboratory results from patent publication US4518789A, “Phenyl alpha-acyloxyacetamide derivatives and their therapeutic use” (priority 1983, dated 1985).

How the values were obtained:
[1] = tested on: itch provoked by papain or histamine dihydrochloride; test: Anti-pruritic effect on normal human skin (papain or histamine induced itch); type: in vivo; conditions: 2 to 5% topical, normal human adult volunteers
Description: Itch provoking pruritic compositions were prepared as follows: papain 0.5% solution was prepared by dissolving papain 50 mg in 10 ml of saline, and histamine 0.2% solution was prepared by dissolving histamine dihydrochloride 20 mg in 10 ml of saline. Itching was provoked or induced as follows: a pruritic composition in a volume of 0.05 ml containing papain or histamine dihydrochloride as a pruritic agent was topically applied on the flexor forearm of normal human adult volunteers and the skin site was gently pricked rapidly through the solution with a 26-gauge needle to the level of the papillary dermis as described by Bernstein et al. (J. E. Bernstein, R. M. Swift, K. Soltani and A. L. Lorincz: Antipruritic Effect of an Opiate Antagonist, Naloxone Hydrochloride in Journal of Investigative Dermatology 78, 82-83, 1982). This technique provoked or induced itch sensation at the test skin site within a few minutes following the topical application of the pruritic composition. After itch sensation had been induced a composition containing 2 to 5% N-ethyl phenyl-alpha-acetoxyacetamide, N-phenethyl phenyl-alpha-acetoxyacetamide or other phenyl-alpha-acyloxyacetamide derivatives of the instant invention was topically applied on the pruritic skin site. The vehicle alone cream containing no active ingredient was used as a control.

common scratching = test: Systemic treatment of domestic dogs for common scratching; type: in vivo; conditions: oral single dose 5 to 10 mg per kg
Excerpt: (§1) It has already been established through tests in animals and humans that phenyl alpha-acyloxyacetamide derivatives are therapeutically effective for topical or systemic treatment of various dermatologic and other conditions.

[2] = tested on: calming or sedative effects; test: Tranquilizing effect, oral administration in dogs; type: in vivo; conditions: test compounds 5 to 10 mg per kg
Description: (§2) Hairless mice, white hairy mice and dogs were used in these studies.
Three dogs weighing between 10 to 20 kg were given orally N-phenethyl phenyl-alpha-acetoxyacetamide or N-ethyl phenyl-alpha-acetoxyacetamide in gelating capsules at doses of 5 to 10 mg per kg.

[3] = tested on: calming or quieting behaviour; test: Tranquilizing effect, subcutaneous administration in mice; type: in vivo, hairless mice, white hairy mice; conditions: 1 to 2% solution
Description: as §2
N-phenethyl phenyl-alpha-acetoxyacetamide, N-ethyl phenyl-alpha-acetoxyacetamide or other phenyl-alpha-acyloxyacetamide derivative of the instant invention was prepared as a 1 to 2% solution or as gelatin capsules containing 75 to 300 mg per capsule of the active ingredient. Hairless mice or white hairy mice five in each group were injected subcutaneously with the test solution in a volume of 0.1 ml. The same procedure was repeated once more 3 hours later. For the next 8 hours and also at 24 hours later, all the mice were carefully observed and examined for any signs and evidences of calming or quieting effects caused by the test compound.
Parameters and criteria used for sedative or tranquilizing effect were the same as that described in the foregoing section.

pruritus ani = test: Topical treatment of pruritus ani; type: in vivo, human; conditions: 1 to 5 percent, regular basis
Excerpt: as §1

[4] = tested on: hind limb arthritis secondary to hip dysplasia; test: Analgesic effects, oral, dogs with arthritis; type: in vivo; conditions: two dogs, oral approximately 8 mg per kg
Description: To test whether in addition to tranquilizing effects in animals, analgesic properties of phenyl-alpha-acyloxyacetamide derivatives of the instant invention might exist we administered systemically these compounds to dogs. N-ethyl phenyl-alpha-acetoxyacetamide or N-phenethyl phenyl-alpha-acetoxyacetamide in single oral doses of approximately 8 mg per kg was given to two dogs disabled with hind limb arthritis secondary to hip dysplasia. One dog weighed 23 kg; the other weighed 28 kg.
The disability in both animals was such that they were unable to jump up upon a test table, 45 cm L×45 cm W×45 cm H, on which had been placed a piece of food as an inducement; nor were they able to run about or romp, their movements being limited to walking with evident stiffness of gait.

[5] = tested on: scratching or licking induced by pruritic agent; test: Screening for anti-pruritic effect, topical application, hairless mouse challenged with pruritic agent; type: in vivo; conditions: 5% solution topical, 30 minutes observation
Excerpt: Either the mouse or the rat may be used as a screening model for anti-pruritic compounds. Before testing hair is plucked from the test site of skin in haired animals. Therefore hairless strains of mouse or the strain of rat known as fuzzy rat is preferred as a screening model for the present purpose.
A test composition containing 5% phenyl-alpha-acyloxyacetamide derivative in solution was topically applied to the left dorsal skin of a hairless mouse and a control vehicle solution was topically applied to the right dorsal skin of the same mouse. The same topical applications were repeated three times at 30 minute intervals. A challenging composition containing a pruritic agent, i.e. itch provoking substance, was then topically applied in a volume of 0.05 ml on both left and right dorsal skin of the same mouse. For the next 30 minutes the mouse was carefully observed for signs and symptoms of scratching or licking at the skin sites where the challenging pruritic composition had been topically applied.
If the mouse scratched or licked indiscriminately at both left and right sides, the test composition was determined to have no anti-pruritic property. […] To confirm the anti-pruritic effect of the test composition, the test solution was later topically applied to the right instead of the left dorsal skin of the same mouse. […]

summer eczema-prurigo = test: Oral anti-scratch (anti-pruritic) treatment of dogs; type: in vivo; conditions: for adverse effects on repeated dosing: dog, in vivo, po; for duration of anti-scratch or anti-pruritic effect / drowsiness or intoxication / time to stop scratching / anti-pruritic or anti-scratching effect on repeated dosing: dogs; for duration of anti-scratch or anti-pruritic effect / drowsiness or intoxication / time to stop scratching: oral single dose 5 to 10 mg/kg; for drowsiness or intoxication / time to stop scratching: all three dogs; for anti-pruritic or anti-scratching effect on repeated dosing: oral, repeated at intervals of two to several days
Description: Three dogs with summer eczema-prurigo were treated with oral administration of phenyl-alpha-acyloxyacetamide derivatives. Gelatin capsules containing N-ethyl phenyl-alpha-acetoxyacetamide or N-phenethyl phenyl-alpha-acetoxyacetamide at dosages ranging from 50 mg to 150 mg per capsule were prepared according to Examples. Single doses of 5 mg/kg to 10 mg/kg were administered orally to the dogs.
Oral doses containing N-ethyl phenyl-alpha-acetoxyacetamide or N-phenethyl phenyl-alpha-acetoxyacetamide were administered repeatedly to the dogs at intervals of two to several days.

[6] = tested on: Eczemas, and Other Pruritic Disorders; test: Topical anti-pruritic effect in patients with pruritic disorders; type: in vivo, human; conditions: first category compounds, 2 to 5%
Description: Patients with various kinds of pruritic disorders participated in this study. The cases included atopic eczema, patchy eczema, chronic eczema of the hands, lichen simplex chronicus, contact allergic eczema, pruritus of the aged, pruritus of hepatic origin, pruritus ani, pruritus vulvae, scalp pruritus and pruritus of other disorders such as mycosis fungoides, psoriasis and pityriasis rubra pilaris.
Therapeutic compositions containing phenyl-alpha-acyloxyacetamides at 2 to 5% concentrations in cream, ointment, lotion or solution were prepared according to the Examples. The medicinal compositions were topically applied by the patient in an amount sufficient to cover the itching area of skin. Applications were made one to two times daily or as frequently as necessary and without occlusive dressings.
Two parameters have been used to compare degrees of anti-pruritic effect of phenyl-alpha-acyloxyacetamides. The first parameter is whether the relief of itching is complete (2+) or incomplete (1+). The second parameter is the number of hours the patient stays free of pruritus after the initial anti-pruritic effect. […] Therefore, the overall anti-pruritic effect of a compound may range from 2+ to 4+. […] 4+ for complete relief and lasting for more than 8 hours.

CCNC(=O)C(OC(C)=O)c1ccccc1 (stereo not drawn) [N-ethyl phenyl-alpha-acetoxyacetamide]
Anti-pruritic Effect [1]: substantial anti-pruritic effect
relief of scratching, duration (common scratching): more than 8 hours
tranquilizing / sedative effect [2]: no detectable signs of sedation
tranquilizing effect [3]: no detectable signs of sedation
relief from itching and scratching (pruritus ani): complete relief from itching and scratching
physical incapacities [4]: diminished
time after administration at which incapacities were diminished [4]: Two to three
Anti-pruritic Effect [5]: substantial anti-pruritic effect
adverse effects on repeated dosing (summer eczema-prurigo): No evidence of adverse effects was detected
duration of anti-scratch or anti-pruritic effect (summer eczema-prurigo): approximately 8 hours
drowsiness or intoxication (summer eczema-prurigo): mentally alert as usual and did not have any signs or symptoms of drowsiness or intoxication
time to stop scratching (summer eczema-prurigo): one
anti-pruritic or anti-scratching effect on repeated dosing (summer eczema-prurigo): the same anti-pruritic or anti-scratching effect
Anti-pruritic Effect [6]: 4+ (complete relief and lasting for more than 8 hours)

CC(=O)OC(C(=O)NCCc1ccccc1)c1ccccc1 (stereo not drawn) [N-phenethyl phenyl-alpha-acetoxyacetamide]
Anti-pruritic Effect [1]: substantial anti-pruritic effect
relief of scratching, duration (common scratching): more than 8 hours
tranquilizing / sedative effect [2]: mild tranquilizing effect
tranquilizing effect [3]: marked degrees of calming effect
relief from itching and scratching (pruritus ani): complete relief from itching and scratching
physical incapacities [4]: diminished
time after administration at which incapacities were diminished [4]: Two to three
Anti-pruritic Effect [5]: substantial anti-pruritic effect
adverse effects on repeated dosing (summer eczema-prurigo): No evidence of adverse effects was detected
duration of anti-scratch or anti-pruritic effect (summer eczema-prurigo): approximately 8 hours
drowsiness or intoxication (summer eczema-prurigo): mentally alert as usual and did not have any signs or symptoms of drowsiness or intoxication
time to stop scratching (summer eczema-prurigo): one
anti-pruritic or anti-scratching effect on repeated dosing (summer eczema-prurigo): the same anti-pruritic or anti-scratching effect
Anti-pruritic Effect [6]: 4+ (complete relief and lasting for more than 8 hours)
